Measurements from patent US12275731B2, “Azaindole inhibitors of wild-type and mutant forms of LRRK2” (DANA-FARBER CANCER INSTITUTE, INC., priority 2018, dated 2025).

What was measured:
Experiment in all cases: KinomeScan profiling
Assay type in all cases: binding
[1] = target: T1, ADCK3 (Homo sapiens, UniProt Q8NI60); conditions: ADCK3, 1 μM; read-out: % control
T1 construct: purchased KinomeScan®
In short: (§1)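 Single-point competition binding screen: 1 μM, DMSO, 468 kinases. Results reported as % control from RLU, normalised to DMSO and positive-control wells. Activity threshold: <35% control.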

[2] = target: T2, EPHB3 (Homo sapiens, UniProt P54753); conditions: EPHB3, 1 μM; read-out: % control
T2 sequence (P54753 34-998): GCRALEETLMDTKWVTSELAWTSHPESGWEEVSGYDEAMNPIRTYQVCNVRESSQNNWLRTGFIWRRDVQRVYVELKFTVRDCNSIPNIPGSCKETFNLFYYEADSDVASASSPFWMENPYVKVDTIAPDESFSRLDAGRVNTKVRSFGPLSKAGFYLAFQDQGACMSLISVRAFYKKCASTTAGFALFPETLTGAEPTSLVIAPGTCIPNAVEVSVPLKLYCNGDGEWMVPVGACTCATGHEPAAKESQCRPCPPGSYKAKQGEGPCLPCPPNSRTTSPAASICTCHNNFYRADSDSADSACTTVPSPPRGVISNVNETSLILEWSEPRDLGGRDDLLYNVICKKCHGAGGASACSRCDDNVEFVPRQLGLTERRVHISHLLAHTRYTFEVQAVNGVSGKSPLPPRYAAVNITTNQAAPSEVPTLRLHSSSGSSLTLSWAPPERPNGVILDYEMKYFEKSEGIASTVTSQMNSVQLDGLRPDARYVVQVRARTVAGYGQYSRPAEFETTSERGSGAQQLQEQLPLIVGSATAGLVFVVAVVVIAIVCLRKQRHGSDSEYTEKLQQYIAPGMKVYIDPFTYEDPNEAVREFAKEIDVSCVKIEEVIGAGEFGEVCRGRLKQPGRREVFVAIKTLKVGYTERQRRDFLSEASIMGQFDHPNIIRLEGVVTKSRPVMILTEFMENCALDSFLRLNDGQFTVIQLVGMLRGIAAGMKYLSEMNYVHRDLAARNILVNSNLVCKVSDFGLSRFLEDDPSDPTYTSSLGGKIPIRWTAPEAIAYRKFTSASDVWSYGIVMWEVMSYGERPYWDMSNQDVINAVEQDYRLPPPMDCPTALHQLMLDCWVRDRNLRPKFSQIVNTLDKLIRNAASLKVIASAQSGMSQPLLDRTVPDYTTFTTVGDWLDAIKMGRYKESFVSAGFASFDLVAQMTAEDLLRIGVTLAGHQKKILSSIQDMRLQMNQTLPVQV
In short: as §1

[3] = target: T3, PRKD3 (Homo sapiens, UniProt O94806); conditions: PRKD3, 1 μM; read-out: % control
T3 sequence (O94806 1-890): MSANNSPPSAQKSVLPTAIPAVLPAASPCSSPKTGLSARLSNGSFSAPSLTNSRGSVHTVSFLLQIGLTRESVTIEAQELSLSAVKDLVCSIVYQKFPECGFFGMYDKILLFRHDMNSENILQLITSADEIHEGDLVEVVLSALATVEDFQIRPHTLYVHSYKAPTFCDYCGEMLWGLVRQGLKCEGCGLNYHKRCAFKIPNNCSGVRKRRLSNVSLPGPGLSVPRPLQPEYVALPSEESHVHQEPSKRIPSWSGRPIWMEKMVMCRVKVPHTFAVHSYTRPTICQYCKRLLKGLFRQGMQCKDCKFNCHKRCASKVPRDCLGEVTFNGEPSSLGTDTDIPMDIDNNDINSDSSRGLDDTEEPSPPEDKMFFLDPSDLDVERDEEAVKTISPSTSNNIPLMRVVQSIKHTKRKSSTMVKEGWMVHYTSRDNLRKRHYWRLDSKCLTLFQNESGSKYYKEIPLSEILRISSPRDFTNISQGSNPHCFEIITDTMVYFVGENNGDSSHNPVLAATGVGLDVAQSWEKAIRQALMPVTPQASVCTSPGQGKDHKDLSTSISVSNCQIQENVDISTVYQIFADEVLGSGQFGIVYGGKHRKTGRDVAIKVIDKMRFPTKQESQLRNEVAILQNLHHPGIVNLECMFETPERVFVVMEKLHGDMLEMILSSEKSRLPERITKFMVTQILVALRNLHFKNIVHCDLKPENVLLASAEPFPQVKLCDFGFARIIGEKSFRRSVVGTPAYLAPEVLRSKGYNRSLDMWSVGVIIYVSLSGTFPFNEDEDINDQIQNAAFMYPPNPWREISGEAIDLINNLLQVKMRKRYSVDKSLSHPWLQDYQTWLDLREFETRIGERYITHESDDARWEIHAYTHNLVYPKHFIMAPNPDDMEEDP
In short: as §1

[4] = target: T4, MYLK4 (Homo sapiens, UniProt Q86YV6); conditions: MYLK4, 1 μM; read-out: % control
T4 sequence (Q86YV6 1-388): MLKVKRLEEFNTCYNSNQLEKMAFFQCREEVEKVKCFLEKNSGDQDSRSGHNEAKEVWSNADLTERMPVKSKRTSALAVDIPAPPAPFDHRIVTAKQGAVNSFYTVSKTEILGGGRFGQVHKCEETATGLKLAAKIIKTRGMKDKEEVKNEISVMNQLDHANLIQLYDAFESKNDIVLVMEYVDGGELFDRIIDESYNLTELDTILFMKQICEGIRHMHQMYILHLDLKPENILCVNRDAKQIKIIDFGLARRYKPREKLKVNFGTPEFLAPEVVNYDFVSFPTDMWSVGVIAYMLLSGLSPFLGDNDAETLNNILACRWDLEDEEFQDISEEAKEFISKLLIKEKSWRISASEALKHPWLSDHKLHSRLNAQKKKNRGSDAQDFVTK
In short: as §1

T1 sequence (Q8NI60 163-647): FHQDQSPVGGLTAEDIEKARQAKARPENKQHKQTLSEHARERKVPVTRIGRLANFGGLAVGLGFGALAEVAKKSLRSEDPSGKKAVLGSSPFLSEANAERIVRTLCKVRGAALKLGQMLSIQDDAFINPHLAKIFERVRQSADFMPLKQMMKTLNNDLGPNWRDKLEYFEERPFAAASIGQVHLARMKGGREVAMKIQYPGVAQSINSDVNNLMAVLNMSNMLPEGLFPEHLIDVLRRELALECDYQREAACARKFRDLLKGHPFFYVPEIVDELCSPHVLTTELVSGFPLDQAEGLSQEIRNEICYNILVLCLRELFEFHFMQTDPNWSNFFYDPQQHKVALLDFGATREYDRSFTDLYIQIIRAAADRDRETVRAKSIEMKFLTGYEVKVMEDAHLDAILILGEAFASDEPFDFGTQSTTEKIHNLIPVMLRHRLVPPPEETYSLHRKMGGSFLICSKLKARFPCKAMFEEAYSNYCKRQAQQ

SMILES | remaining binding at 1 µM [1] | remaining binding at 1 µM [2] | remaining binding at 1 µM [3] | remaining binding at 1 µM [4]
CNc1c(-c2cnn([C@H]3CCN(C(C)=O)C[C@@H]3F)c2)cnc2[nH]cc(Cl)c12 [Compound 77, 1-((3S,4S)-4-(4-(3-chloro-4-(methylamino)-1H-pyrrolo[2,3-b]pyridin-5-yl)-1H-pyrazol-1-yl)-3-fluoropiperidin-1-yl)ethan-1-one] | 100% | 100% | 56% | 90%
O=C(c1ccc(-c2cnc3[nH]cc(Cl)c3c2NC2CCCC2)cc1)N1CCC(N2CCOCC2)CC1 [Compound 101, (4-(3-chloro-4-(cyclopentylamino)-1H-pyrrolo[2,3-b]pyridin-5-yl)phenyl)(4-morpholinopiperidin-1-yl)methanone] | 68% | 79% | 35% | 95%
CNc1c(-c2ccc(C(=O)N3CCC(N4CCOCC4)CC3)cc2)cnc2[nH]cc(Cl)c12 [Compound 96, (4-(3-chloro-4-(methylamino)-1H-pyrrolo[2,3-b]pyridin-5-yl)phenyl)(4-morpholinopiperidin-1-yl)methanone] | 100% | 100% | 13% | 100%
